Data taken from patent publication US10781204B2, “TYK2 inhibitors and uses thereof” (Nimbus Lakshmi, Inc., priority 2015, dated 2020).

Tests used:
[1] = target: JAK2 (Homo sapiens (Human), UniProt O60674); assay: JAK2 radioactive kinase assay; format: biochemical; details: ATP 10 μM
How it was run: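 Radiometric assay in Hepes pH 7.5, MgCl2, EGTA, Brij35, BSA, DTT, 1% DMSO, with 10 μM [33P]ATP, 120 min at room temp; P81 paper capture and counting. […]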

[2] = system: Tyk2-pSTAT4 (IL-12 induced pSTAT4); assay: IL-12 induced pSTAT4 in human PBMC; format: cell-based; details: Homo sapiens, PBMC, 0.5 h, 1.7 ng/mL IL-12, 30 minutes
How it was run: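 Thawed human PBMC (200,000 cells/well, serum-containing medium) preincubated with compound 1 hr at 37 C, 0.1% DMSO final. Stimulated with 1.7 ng/mL IL-12 (final) for 30 minutes; pSTAT4 and total STAT4 in lysates measured by MSD immunoassay.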

[3] = target: TYK2 (Homo sapiens (Human), UniProt P29597); assay: Tyk2 radioactive kinase assay; format: biochemical; details: ATP 10 μM
How it was run: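 Recombinant human TYK2 (Invitrogen) was mixed with 20 μM peptide substrate in a buffer of 20 mM Hepes pH 7.5, 10 mM MgCl2, 1 mM EGTA, 0.02% Brij35, 0.02 mg/mL BSA, 0.1 mM […], 2 mM DTT and 1% DMSO, and compounds in DMSO were added. Adding ^33P-ATP (10 μM ATP) started the reaction, which ran 120 min at room temperature. Mixtures were then spotted onto P81 ion-exchange paper, washed thoroughly in 0.75% phosphoric acid, and counted for radioactivity.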

[4] = system: JAK2-pSTAT5 (GM-CSF induced pSTAT5); assay: GM-CSF induced pSTAT5 in human PBMC; format: cell-based; details: Homo sapiens, PBMC, 20 min, 5 ng/mL GM-CSF
How it was run: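 Thawed human PBMC, 200,000 per well in serum-containing medium, were preincubated 1 hr at 37 C with compound in 0.1% DMSO. GM-CSF at 5 ng/mL final was added for 20 minutes, then pSTAT5 and total STAT5 in lysates were measured by MSD immunoassay.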

TYK2, sequence (P29597 whole entry): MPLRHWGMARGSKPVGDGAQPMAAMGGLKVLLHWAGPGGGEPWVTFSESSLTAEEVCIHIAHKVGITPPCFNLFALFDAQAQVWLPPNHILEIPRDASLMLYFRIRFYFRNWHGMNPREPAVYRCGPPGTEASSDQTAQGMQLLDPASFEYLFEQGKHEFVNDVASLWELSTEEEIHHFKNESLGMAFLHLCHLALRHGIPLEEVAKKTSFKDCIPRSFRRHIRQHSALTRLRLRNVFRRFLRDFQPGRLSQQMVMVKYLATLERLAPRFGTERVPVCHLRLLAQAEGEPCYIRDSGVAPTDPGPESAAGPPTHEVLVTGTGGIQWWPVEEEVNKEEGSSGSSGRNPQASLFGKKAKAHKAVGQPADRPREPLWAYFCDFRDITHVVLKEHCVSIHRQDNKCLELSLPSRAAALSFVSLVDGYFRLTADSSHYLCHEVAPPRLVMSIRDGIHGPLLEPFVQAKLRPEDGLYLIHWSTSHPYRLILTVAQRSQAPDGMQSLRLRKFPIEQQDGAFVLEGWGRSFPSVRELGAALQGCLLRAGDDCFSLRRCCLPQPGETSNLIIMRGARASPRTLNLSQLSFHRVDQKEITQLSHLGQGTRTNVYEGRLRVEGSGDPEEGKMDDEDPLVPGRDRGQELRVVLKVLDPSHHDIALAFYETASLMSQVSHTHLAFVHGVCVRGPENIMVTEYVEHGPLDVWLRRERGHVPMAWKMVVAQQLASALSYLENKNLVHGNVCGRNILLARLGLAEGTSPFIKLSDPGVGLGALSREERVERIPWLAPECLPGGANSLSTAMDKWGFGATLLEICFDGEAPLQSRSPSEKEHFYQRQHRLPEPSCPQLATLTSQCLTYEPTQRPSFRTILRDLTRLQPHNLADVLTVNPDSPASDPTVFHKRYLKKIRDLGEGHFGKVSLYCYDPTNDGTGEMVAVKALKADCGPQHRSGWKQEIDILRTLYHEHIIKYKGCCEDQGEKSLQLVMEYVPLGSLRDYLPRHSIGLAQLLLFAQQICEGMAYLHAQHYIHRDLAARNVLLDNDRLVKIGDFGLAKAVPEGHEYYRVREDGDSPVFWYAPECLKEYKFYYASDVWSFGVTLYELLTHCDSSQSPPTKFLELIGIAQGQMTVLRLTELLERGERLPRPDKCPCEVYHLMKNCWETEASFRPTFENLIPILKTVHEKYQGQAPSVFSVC
JAK2, sequence (O60674 whole entry): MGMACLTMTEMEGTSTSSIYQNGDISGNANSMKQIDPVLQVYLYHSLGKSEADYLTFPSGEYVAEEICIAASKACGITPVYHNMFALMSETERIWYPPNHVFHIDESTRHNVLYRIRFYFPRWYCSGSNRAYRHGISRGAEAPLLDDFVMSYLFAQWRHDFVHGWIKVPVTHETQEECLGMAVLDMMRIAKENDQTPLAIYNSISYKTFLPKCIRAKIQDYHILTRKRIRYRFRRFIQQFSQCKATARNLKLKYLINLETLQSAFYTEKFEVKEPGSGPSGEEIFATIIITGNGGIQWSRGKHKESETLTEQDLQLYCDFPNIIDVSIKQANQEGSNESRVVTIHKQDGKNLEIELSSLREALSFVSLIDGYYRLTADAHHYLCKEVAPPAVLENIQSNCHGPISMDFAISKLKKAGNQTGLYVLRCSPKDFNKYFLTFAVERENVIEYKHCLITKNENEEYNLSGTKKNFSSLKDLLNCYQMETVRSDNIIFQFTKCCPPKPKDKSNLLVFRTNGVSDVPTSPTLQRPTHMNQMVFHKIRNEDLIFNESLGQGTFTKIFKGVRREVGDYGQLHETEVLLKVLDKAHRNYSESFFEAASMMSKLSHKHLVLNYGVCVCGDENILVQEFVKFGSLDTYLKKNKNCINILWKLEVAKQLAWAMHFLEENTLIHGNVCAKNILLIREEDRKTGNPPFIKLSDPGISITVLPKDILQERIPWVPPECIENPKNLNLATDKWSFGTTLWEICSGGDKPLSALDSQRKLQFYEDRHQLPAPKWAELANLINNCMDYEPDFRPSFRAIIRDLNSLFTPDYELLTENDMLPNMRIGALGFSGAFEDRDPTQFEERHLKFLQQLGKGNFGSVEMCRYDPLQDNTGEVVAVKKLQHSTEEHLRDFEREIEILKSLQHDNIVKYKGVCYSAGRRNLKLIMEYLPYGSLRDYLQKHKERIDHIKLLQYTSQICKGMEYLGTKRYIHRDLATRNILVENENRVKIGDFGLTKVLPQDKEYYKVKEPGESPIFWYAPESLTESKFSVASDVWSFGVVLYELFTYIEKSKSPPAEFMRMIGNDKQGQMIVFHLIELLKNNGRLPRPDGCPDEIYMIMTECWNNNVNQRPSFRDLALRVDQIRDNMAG

`CC1O[C@H]2CN(c3ccn(-c4cc(-c5c(F)cccc5C#N)nc5c4C(=O)NC5)n3)C[C@H]2O1` (stereo partly drawn) [I-161, 3-fluoro-2-(4-(3-((3aR,6aS)-2-methyltetrahydro-5H-[1,3]dioxolo-[4,5-c]pyrrol-5-yl)-1H-pyrazol-1-yl)-5-oxo-6,7-dihydro-5H-pyrrolo[3,4-b]pyridin-2-yl)benzonitrile] gave a Ki [1] of 10 to 100 nM, an EC50 [2] of 100 to 2000 nM and a Ki [3] of 0.1 to 10 nM. The EC50 [4] was 100 to 2000 nM.
With `N#Cc1cccc(F)c1-c1cc(-n2ccc(N3CC[C@H](O)C3=O)n2)c2c(n1)CNC2=O` [I-148, (S)-3-fluoro-2-(4-(3-(3-hydroxy-2-oxopyrrolidin-1-yl)-1H-pyrazol-1-yl)-5-oxo-6,7-dihydro-5H-pyrrolo[3,4-b]pyridin-2-yl)benzonitrile] the Ki [1] was ≥ 1000 nM, the EC50 [2] was > 2000 nM and the Ki [3] was 10 to 100 nM. For the same molecule, the EC50 [4] was > 2000 nM.
Molecule `[2H]C1([2H])NC(=O)c2c(-n3ccc(N4C([2H])([2H])C[C@](O)(C([2H])([2H])[2H])C4([2H])[2H])n3)cc(-c3c(F)cccc3C#N)nc21` [I-207, (R)-3-fluoro-2-(4-(3-(3-hydroxy-3-(methyl-d3)pyrrolidin-1-yl-2,2,5,5-d4)-1H-pyrazol-1-yl)-5-oxo-6,7-dihydro-5H-pyrrolo[3,4-b]pyridin-2-yl-7,7-d2)benzonitrile] has a Ki [1] of 10 to 100 nM, an EC50 [2] of 30 to 100 nM and a Ki [3] of 0.1 to 10 nM. It also gave an EC50 [4] of 100 to 2000 nM.
`CC(C)c1csc(-c2cc(-c3c(F)cccc3F)nc3c2C(=O)NC3)n1` [I-233, 2-(2,6-difluorophenyl)-4-(4-isopropylthiazol-2-yl)-6,7-dihydro-5H-pyrrolo[3,4-b]pyridin-5-one] was tested, and the Ki [1] was ≥ 1000 nM, the EC50 [2] was > 2000 nM and the Ki [3] was 10 to 100 nM. The EC50 [4] was > 2000 nM.
In the case of `CC1(C)[C@@H](O)CCN1c1ccn(-c2cc(-c3c(F)cccc3C#N)nc3c2C(=O)NC3)n1` [I-205, (S)-3-fluoro-2-(4-(3-(3-hydroxy-2,2-dimethylpyrrolidin-1-yl)-1H-pyrazol-1-yl)-5-oxo-6,7-dihydro-5H-pyrrolo[3,4-b]pyridin-2-yl)benzonitrile], the Ki [1] is reported as 10 to 100 nM, the EC50 [2] is reported as 30 to 100 nM and the Ki [3] is reported as 0.1 to 10 nM. For the same molecule, the EC50 [4] was 100 to 2000 nM.
Work on `CC1(O)CN(c2ccn(-c3cc(-c4c(F)cccc4C#N)nc4c3C(=O)NC4)n2)CCC1F` (centres unmarked) [I-219, 3-fluoro-2-(4-(3-(4-fluoro-3-hydroxy-3-methylpiperidin-1-yl)-1H-pyrazol-1-yl)-5-oxo-6,7-dihydro-5H-pyrrolo[3,4-b]pyridin-2-yl)benzonitrile] yielded a Ki [1] of 10 to 100 nM, an EC50 [2] of 100 to 2000 nM and a Ki [3] of 0.1 to 10 nM. It also gave an EC50 [4] of 100 to 2000 nM.
In the case of `CO[C@H]1CN(c2ccn(-c3cc(-c4c(F)cccc4C#N)nc4c3C(=O)NC4)n2)CC[C@H]1OC` [I-176, 2-(4-(3-((3S,4R)-3,4-dimethoxypiperidin-1-yl)-1H-pyrazol-1-yl)-5-oxo-6,7-dihydro-5H-pyrrolo[3,4-b]pyridin-2-yl)-3-fluorobenzonitrile], the Ki [1] is reported as 10 to 100 nM, the EC50 [2] is reported as 100 to 2000 nM and the Ki [3] is reported as 0.1 to 10 nM. For the same molecule, the EC50 [4] was 100 to 2000 nM.
`N#Cc1cccc(F)c1-c1cc(-n2ccc(N3CCOC[C@@H](O)C3)n2)c2c(n1)CNC2=O` [I-131, (S)-3-fluoro-2-(4-(3-(6-hydroxy-1,4-oxazepan-4-yl)-1H-pyrazol-1-yl)-5-oxo-6,7-dihydro-5H-pyrrolo[3,4-b]pyridin-2-yl)benzonitrile] gave a Ki [1] of 10 to 100 nM, an EC50 [2] of 30 to 100 nM and a Ki [3] of 0.1 to 10 nM. For the same molecule, the EC50 [4] was > 2000 nM.
`CO[C@H]1CN(c2ccn(-c3cc(-c4c(F)cccc4C#N)nc4c3C(=O)NC4)n2)C[C@@]1(C)OC` [I-230, 2-(4-(3-((3R,4S)-3,4-dimethoxy-3-methylpyrrolidin-1-yl)-1H-pyrazol-1-yl)-5-oxo-6,7-dihydro-5H-pyrrolo[3,4-b]pyridin-2-yl)-3-fluorobenzonitrile] was tested, and the Ki [1] was 0.1 to 10 nM, the EC50 [2] was 100 to 2000 nM and the Ki [3] was 0.1 to 10 nM. It also gave an EC50 [4] of 100 to 2000 nM.
Work on `N#Cc1cccc(F)c1-c1cc(-n2ccc(N3CCCC(C#N)C3)n2)c2c(n1)CNC2=O` (centres unmarked) [I-95, 1-(1-(2-(2-cyano-6-fluorophenyl)-5-oxo-6,7-dihydro-5H-pyrrolo[3,4-b]pyridin-4-yl)-1H-pyrazol-3-yl)piperidine-3-carbonitrile] yielded a Ki [1] of 10 to 100 nM, an EC50 [2] of 30 to 100 nM and a Ki [3] of 0.1 to 10 nM. It also gave an EC50 [4] of 100 to 2000 nM.
`CO[C@@H]1CN(c2ccn(-c3cc(-c4c(F)cccc4C#N)nc4c3C(=O)NC4)n2)CC[C@H]1O` [I-195, 3-fluoro-2-(4-(3-((3R,4R)-4-hydroxy-3-methoxypiperidin-1-yl)-1H-pyrazol-1-yl)-5-oxo-6,7-dihydro-5H-pyrrolo[3,4-b]pyridin-2-yl)benzonitrile] showed a Ki [1] of 0.1 to 10 nM, an EC50 [2] of 30 to 100 nM and a Ki [3] of 0.1 to 10 nM. For the same molecule, the EC50 [4] was 100 to 2000 nM.
With `[2H]C1([2H])N(c2ccn(-c3cc(-c4c(F)cccc4C#N)nc4c3C(=O)NC4)n2)C([2H])([2H])C(C)(O)C([2H])([2H])C1([2H])[2H]` (centres unmarked) [I-186, 3-fluoro-2-(4-(3-(3-hydroxy-3-methylpiperidin-1-yl-2,2,4,4,5,5,6,6-d8)-1H-pyrazol-1-yl)-5-oxo-6,7-dihydro-5H-pyrrolo[3,4-b]pyridin-2-yl)benzonitrile] the Ki [1] was 10 to 100 nM, the EC50 [2] was 100 to 2000 nM and the Ki [3] was 0.1 to 10 nM. For the same molecule, the EC50 [4] was > 2000 nM.
`[2H]C1([2H])C[C@@](O)(C([2H])([2H])[2H])C([2H])([2H])N1c1ccn(-c2cc(-c3c(F)cccc3C#N)nc3c2C(=O)NC3)n1` [I-183, (S)-3-fluoro-2-(4-(3-(3-hydroxy-3-(methyl-d3)pyrrolidin-1-yl-2,2,5,5-d4)-1H-pyrazol-1-yl)-5-oxo-6,7-dihydro-5H-pyrrolo[3,4-b]pyridin-2-yl)benzonitrile] gave a Ki [1] of 0.1 to 10 nM, an EC50 [2] of 30 to 100 nM and a Ki [3] of 0.1 to 10 nM. It also gave an EC50 [4] of 100 to 2000 nM.
Molecule `CO[C@H]1CN(c2ccn(-c3cc(-c4c(F)cccc4C#N)nc4c3C(=O)NC4)n2)C[C@@]1(C)O` [I-226, 3-fluoro-2-(4-(3-((3R,4S)-3-hydroxy-4-methoxy-3-methyl-pyrrolidin-1-yl)-1H-pyrazol-1-yl)-5-oxo-6,7-dihydro-5H-pyrrolo[3,4-b]pyridin-2-yl)benzonitrile] has a Ki [1] of 0.1 to 10 nM, an EC50 [2] of 30 to 100 nM and a Ki [3] of 0.1 to 10 nM. The EC50 [4] was 100 to 2000 nM.
In the case of `N#Cc1cccc(F)c1-c1cc(-n2ccc(N3CC[C@]4(C3)OC[C@H](O)CO4)n2)c2c(n1)CNC2=O` [I-221, 3-fluoro-2-(4-(3-((5r,8r)-8-hydroxy-6,10-dioxa-2-azaspiro-[4.5]decan-2-yl)-1H-pyrazol-1-yl)-5-oxo-6,7-dihydro-5H-pyrrolo[3,4-b]pyridin-2-yl)benzonitrile], the Ki [1] is reported as 0.1 to 10 nM, the EC50 [2] is reported as 100 to 2000 nM and the Ki [3] is reported as 0.1 to 10 nM. For the same molecule, the EC50 [4] was 100 to 2000 nM.
`CC1(O)CCCN(c2ccn(-c3cc(-c4c(F)cccc4C#N)nc4c3C(=O)NC4)n2)C1` (centres unmarked) [I-62, 3-fluoro-2-(4-(3-(3-hydroxy-3-methylpiperidin-1-yl)-1H-pyrazol-1-yl)-5-oxo-6,7-dihydro-5H-pyrrolo[3,4-b]pyridin-2-yl)benzonitrile] gave a Ki [1] of 10 to 100 nM, an EC50 [2] of 100 to 2000 nM and a Ki [3] of 0.009 to 0.1 nM. It also gave an EC50 [4] of 100 to 2000 nM.
`N#Cc1cccc(F)c1-c1cc(-n2cc(F)c(N3CC[C@H](O)C3)n2)c2c(n1)CNC2=O` [I-190, (S)-3-fluoro-2-(4-(4-fluoro-3-(3-hydroxypyrrolidin-1-yl)-1H-pyrazol-1-yl)-5-oxo-6,7-dihydro-5H-pyrrolo[3,4-b]pyridin-2-yl)benzonitrile] was tested, and the Ki [1] was 10 to 100 nM, the EC50 [2] was 100 to 2000 nM and the Ki [3] was 0.1 to 10 nM. The EC50 [4] was 100 to 2000 nM.
